Data taken from patent US20130252988A1, “COMPOSITIONS AND METHODS FOR TREATING MYELOFIBROSIS” (TARGEGEN, INC., priority 2010, published 2013).
“Also recorded” adds a separate entry of the source. Structures can show the parent of a compound that is named as a salt. Where two headings read alike, the source gives them in different places. Marks after values point to notes of the source that are not given here.

Tested on: subjects with myelofibrosis
Settings: for Abdominal pain Severity Grade 1-2, subjects n (%) / Abdominal pain Severity Grade 3-4, subjects n (%) / Alanine aminotransferase increased Severity Grade 1-2, subjects n (%) / Alanine aminotransferase increased Severity Grade 3-4, subjects n (%) / Anorexia Severity Grade 1-2, subjects n (%) / Anorexia Severity Grade 3-4, subjects n (%) / Aspartate aminotransferase increased Severity Grade 1-2, subjects n (%) / Aspartate aminotransferase increased Severity Grade 3-4, subjects n (%) / Blood alkaline phosphatase increased Severity Grade 1-2, subjects n (%) / Blood alkaline phosphatase increased Severity Grade 3-4, subjects n (%) / Blood creatinine increased Severity Grade 1-2, subjects n (%) / Blood creatinine increased Severity Grade 3-4, subjects n (%) / Diarrhea Severity Grade 1-2, subjects n (%) / Diarrhea Severity Grade 3-4, subjects n (%) / Dry skin Severity Grade 1-2, subjects n (%) / Dry skin Severity Grade 3-4, subjects n (%) / Edema peripheral Severity Grade 1-2, subjects n (%) / Edema peripheral Severity Grade 3-4, subjects n (%) / Hyperlipasemia Severity Grade 1-2, subjects n (%) / Hyperlipasemia Severity Grade 3-4, subjects n (%) / Hypocalcemia Severity Grade 1-2, subjects n (%) / Hypocalcemia Severity Grade 3-4, subjects n (%) / Nausea Severity Grade 1-2, subjects n (%) / Nausea Severity Grade 3-4, subjects n (%) / Skin exfoliation Severity Grade 1-2, subjects n (%) / Skin exfoliation Severity Grade 3-4, subjects n (%) / Vomiting Severity Grade 1-2, subjects n (%) / Vomiting Severity Grade 3-4, subjects n (%): Table 9: AE at least possibly related to TG101348; for Neutropenia Severity Grade 1-2, subjects n (%) / Neutropenia Severity Grade 3-4, subjects n (%) / Thrombocytopenia Severity Grade 1-2, subjects n (%) / Thrombocytopenia Severity Grade 3-4, subjects n (%) / Anemia Severity Grade 1-2, subjects n (%) / Anemia Severity Grade 3-4, subjects n (%): Table 10: at least possibly related
[1] = Table 5: treatment-emergent non-hematologic laboratory finding, MTD subjects (N = 40)
[2] = All Subjects, not transfusion dependent at study entry (n = 37)
[3] = MTD Cohort, not transfusion dependent at study entry (n = 24)
[4] = overall, at least possibly related
[5] = subject 106-024, 800/680 mg/day, onset day 87, stopped temporarily, Recovered/resolved

## Cc1cnc(Nc2ccc(OCCN3CCCC3)cc2)nc1Nc1cccc(S(=O)(=O)NC(C)(C)C)c1 [TG101348, N-tert-butyl-3-[(5-methyl-2-{[4-(2-pyrrolidin-1-ylethoxy)phenyl]amino}pyrimidin-4-yl)amino]benzenesulfonamide dihydrochloride monohydrate]
[1]
  Hyperkalemia Grade 4, subjects n (%): 1 (3%)
  Hyperlipasemia Grade 2, subjects n (%): 4 (10%)
  Hyperlipasemia Grade 3, subjects n (%): 3 (8%)
  Hyperlipasemia Grade 4, subjects n (%): 2 (5%)
  Hypocalcemia Grade 2, subjects n (%): 8 (20%)
  Hypocalcemia Grade 3, subjects n (%): 3 (8%)
  Hypocalcemia Grade 4, subjects n (%): 0
All Subjects (n = 59)
  Abdominal pain Severity Grade 1-2, subjects n (%): 6 (10.2%)
  Abdominal pain Severity Grade 3-4, subjects n (%): 0
  Alanine aminotransferase increased Severity Grade 1-2, subjects n (%): 11 (18.6%)
  Alanine aminotransferase increased Severity Grade 3-4, subjects n (%): 4 (6.8%)
  Anorexia Severity Grade 1-2, subjects n (%): 8 (13.6%)
  Anorexia Severity Grade 3-4, subjects n (%): 0
  Aspartate aminotransferase increased Severity Grade 1-2, subjects n (%): 15 (25.4%)
  Aspartate aminotransferase increased Severity Grade 3-4, subjects n (%): 1 (1.7%)
  Blood alkaline phosphatase increased Severity Grade 1-2, subjects n (%): 10 (16.9%)
  Blood alkaline phosphatase increased Severity Grade 3-4, subjects n (%): 0
  Blood creatinine increased Severity Grade 1-2, subjects n (%): 14 (23.7%)
  Blood creatinine increased Severity Grade 3-4, subjects n (%): 0
  Diarrhea Severity Grade 1-2, subjects n (%): 32 (54.2%)
  Diarrhea Severity Grade 3-4, subjects n (%): 6 (10.2%)
  Dry skin Severity Grade 1-2, subjects n (%): 6 (10.2%)
  Dry skin Severity Grade 3-4, subjects n (%): 0
  Edema peripheral Severity Grade 1-2, subjects n (%): 6 (10.2%)
  Edema peripheral Severity Grade 3-4, subjects n (%): 0
  Hyperlipasemia Severity Grade 1-2, subjects n (%): 10 (16.9%)
  Hyperlipasemia Severity Grade 3-4, subjects n (%): 6 (10.2%)
  Hypocalcemia Severity Grade 1-2, subjects n (%): 7 (11.9%)
  Hypocalcemia Severity Grade 3-4, subjects n (%): 1 (1.7%)
  Nausea Severity Grade 1-2, subjects n (%): 39 (66.1%)
  Nausea Severity Grade 3-4, subjects n (%): 2 (3.4%)
  Skin exfoliation Severity Grade 1-2, subjects n (%): 8 (13.6%)
  Skin exfoliation Severity Grade 3-4, subjects n (%): 0
  Vomiting Severity Grade 1-2, subjects n (%): 32 (54.2%)
  Vomiting Severity Grade 3-4, subjects n (%): 2 (3.4%)
  Neutropenia Severity Grade 1-2, subjects n (%): 2 (3.4%)
  Neutropenia Severity Grade 3-4, subjects n (%): 6 (10.2%)
  Thrombocytopenia Severity Grade 1-2, subjects n (%): 10 (17.0%)
  Thrombocytopenia Severity Grade 3-4, subjects n (%): 14 (23.7%)
MTD Cohort (n = 40)
  Abdominal pain Severity Grade 1-2, subjects n (%): 4 (10.0%)
  Abdominal pain Severity Grade 3-4, subjects n (%): 0
  Alanine aminotransferase increased Severity Grade 1-2, subjects n (%): 9 (22.5%)
  Alanine aminotransferase increased Severity Grade 3-4, subjects n (%): 3 (7.5%)
  Anorexia Severity Grade 1-2, subjects n (%): 6 (15.0%)
  Anorexia Severity Grade 3-4, subjects n (%): 0
  Aspartate aminotransferase increased Severity Grade 1-2, subjects n (%): 13 (32.5%)
  Aspartate aminotransferase increased Severity Grade 3-4, subjects n (%): 1 (2.5%)
  Blood alkaline phosphatase increased Severity Grade 1-2, subjects n (%): 9 (22.5%)
  Blood alkaline phosphatase increased Severity Grade 3-4, subjects n (%): 0
  Blood creatinine increased Severity Grade 1-2, subjects n (%): 11 (27.5%)
  Blood creatinine increased Severity Grade 3-4, subjects n (%): 0
  Diarrhea Severity Grade 1-2, subjects n (%): 25 (62.5%)
  Diarrhea Severity Grade 3-4, subjects n (%): 5 (12.5%)
  Dry skin Severity Grade 1-2, subjects n (%): 6 (15%)
  Dry skin Severity Grade 3-4, subjects n (%): 0
  Edema peripheral Severity Grade 1-2, subjects n (%): 4 (10.0%)
  Edema peripheral Severity Grade 3-4, subjects n (%): 0
  Hyperlipasemia Severity Grade 1-2, subjects n (%): 9 (22.5%)
  Hyperlipasemia Severity Grade 3-4, subjects n (%): 6 (15.0%)
  Hypocalcemia Severity Grade 1-2, subjects n (%): 6 (15.0%)
  Hypocalcemia Severity Grade 3-4, subjects n (%): 1 (2.5%)
  Nausea Severity Grade 1-2, subjects n (%): 31 (77.5%)
  Nausea Severity Grade 3-4, subjects n (%): 2 (5.0%)
  Skin exfoliation Severity Grade 1-2, subjects n (%): 8 (20.0%)
  Skin exfoliation Severity Grade 3-4, subjects n (%): 0
  Vomiting Severity Grade 1-2, subjects n (%): 27 (67.5%)
  Vomiting Severity Grade 3-4, subjects n (%): 1 (2.5%)
  Neutropenia Severity Grade 1-2, subjects n (%): 2 (5.0%)
  Neutropenia Severity Grade 3-4, subjects n (%): 4 (10.0%)
  Thrombocytopenia Severity Grade 1-2, subjects n (%): 8 (20.0%)
  Thrombocytopenia Severity Grade 3-4, subjects n (%): 11 (27.5%)
[2]
  Anemia Severity Grade 1-2, subjects n (%): 3 (8.1%)
  Anemia Severity Grade 3-4, subjects n (%): 13 (35.1%)
[3]
  Anemia Severity Grade 1-2, subjects n (%): 2 (8.3%)
  Anemia Severity Grade 3-4, subjects n (%): 13 (54.2%)
All subjects
  Grade 3/4 neutropenia considered related to TG101348, subjects: 10%
  Grade 3/4 thrombocytopenia considered related to TG101348, subjects: 24%
At 800 mg/day, dihydrochloride monohydrate
  Dose-limiting toxicity (DLT): asymptomatic grade 3 or 4 amylasemia/lipasemia that was reversible; also recorded: asymptomatic grade 3 or 4 hyperamylasemia (with or without hyperlipasemia) that was reversible
At data cutoff, extension study
  Safety findings with continued dosing beyond 6 cycles: no unique safety findings have emerged
Discontinued without prior dose reduction or tapering, dihydrochloride monohydrate
  Cytokine rebound upon discontinuation of TG101348: absence of immediate adverse cytokine-rebound phenomenon; also recorded: did not experience “cytokine rebound”
Following a total of 24 to 46 weeks on therapy
  Discontinuation because of adverse events during the extension study, number of subjects: 3
hepatosplenomegaly/ascites, accelerated myelofibrosis, leukemic transformation
  Subjects with disease progression: Three
Initiated treatment at 680 mg/day
  Emergence of transfusion requirement, subjects: 72%
Initiated treatment at 240-520 mg/day
  Emergence of transfusion requirement, subjects: 33%
Of 37 subjects not transfusion dependent at baseline
  Grade 3/4 anemia considered related to TG101348, subjects: 35%
Oral once daily, dose escalation 30 to 800 mg/day
  Maximum tolerated dose (MTD): 680 mg/day
overall
  Grades 3/4 asymptomatic increase in ALT, subjects: 7%
  Grades 3/4 asymptomatic increase in AST, subjects: 2%
  Grades 3/4 asymptomatic increase in serum lipase, subjects: 10%
  Grades 3/4 increase in alkaline phosphatase, subjects: 0%
  Grades 3/4 increase in creatinine, subjects: 0%
Overall and MTD cohort
  Grade 4 nausea, diarrhea and vomiting: no Grade 4 events
[4]
  Grade 3 diarrhea, subjects: 10%
  Grade 3 nausea, subjects: 3%
  Grade 3 vomiting, subjects: 3%
Patients with myelofibrosis, dihydrochloride monohydrate
  Tolerability: generally well tolerated
Subject 101-047, 680/680 mg/day, onset day 52, stopped temporarily, Recovered/resolved
  Serious adverse event Neutropenia: CTCAE Severity Grade: 2
Subject 104-015, 360/520 mg/day, onset day 256, permanently discontinued, Not recovered/not resolved, died (suicide) approximately 12 weeks after discontinuation
  Serious adverse event Depression: CTCAE Severity Grade: 3*
Subject 105-013, 240/0 mg/day, onset day 356, action none, Recovered/resolved
  Serious adverse event Hyperlipasemia: CTCAE Severity Grade: 4
Subject 105-013, 240/360 mg/day, onset day 247, permanently discontinued, Not recovered/not resolved
  Serious adverse event Thrombocytopenia: CTCAE Severity Grade: 4
Subject 105-013, starting dose/dose at event 240/360 mg/day, onset day 215, action none, Recovered/resolved
  Serious adverse event Thrombocytopenia: CTCAE Severity Grade: 4
Subject 105-056, 680/520 mg/day, onset day 95, stopped temporarily, Recovered/resolved with sequelae
  Serious adverse event Gallbladder pain: CTCAE Severity Grade: 3
Subject 105-056, 680/680 mg/day, onset day 22, stopped temporarily, Recovered/resolved
  Serious adverse event Cerebrovascular accident: CTCAE Severity Grade: 4
Subject 105-059, 680/360 mg/day, onset day 42, permanently discontinued, Fatal
  Serious adverse event Cardiac arrest: CTCAE Severity Grade: 5
Subject 105-059, 680/520 mg/day, onset day 28, stopped temporarily, Recovered/resolved
  Serious adverse event Hyperlipasemia: CTCAE Severity Grade: 3
Subject 105-059, 680/680 mg/day, onset day 8, stopped temporarily, Recovered/resolved
  Serious adverse event Hyperlipasemia: CTCAE Severity Grade: 3
Subject 106-024, 800/400 mg/day, onset day 474, action none, Recovered/resolved
  Serious adverse event Dehydration: CTCAE Severity Grade: 3
Subject 106-024, 800/440 mg/day, onset day 366, stopped temporarily, Recovered/resolved
  Serious adverse event Tumor lysis syndrome: CTCAE Severity Grade: 3
[5]
  Serious adverse event Dehydration: CTCAE Severity Grade: 2
  Serious adverse event Diarrhea: CTCAE Severity Grade: 3
  Serious adverse event Nausea: CTCAE Severity Grade: 2
  Serious adverse event Vomiting: CTCAE Severity Grade: 2
Subject 106-033, 680/680 mg/day, onset day 8, stopped temporarily, Recovered/resolved
  Serious adverse event Pleuritic pain: CTCAE Severity Grade: 2
Subject 106-045, 680/440 mg/day, onset day 170, stopped temporarily, Recovered/resolved
  Serious adverse event Dehydration: CTCAE Severity Grade: 3
